Assay type in all cases: biochemical
In one assay the target is T1, JAK1 (Homo sapiens, UniProt P23458).
T1 construct: purchased Carna Biosciences, Inc
Kind of assay: JAK tyrosine kinase inhibitory activity in the presence of 1 mM ATP (ELISA), JAK1. In outline: (§1)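 Recombinant kinase (7.5 nM JAK1; 0.75 nM JAK2, JAK3 working dilutions) reacted 1 h at 30 °C with 1 mM ATP in Tris-HCl pH 7.5, Tween-20, DTT, on streptavidin plates. Phosphotyrosine detected by HRP anti-pTyr antibody ELISA, TMB absorbance at 450 nm; duplicate wells, DMSO as negative control.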

The target of the next assay is T2, JAK3 (Homo sapiens, UniProt P52333).
T2 construct: purchased Carna Biosciences, Inc
T2 sequence (P52333 1-1124): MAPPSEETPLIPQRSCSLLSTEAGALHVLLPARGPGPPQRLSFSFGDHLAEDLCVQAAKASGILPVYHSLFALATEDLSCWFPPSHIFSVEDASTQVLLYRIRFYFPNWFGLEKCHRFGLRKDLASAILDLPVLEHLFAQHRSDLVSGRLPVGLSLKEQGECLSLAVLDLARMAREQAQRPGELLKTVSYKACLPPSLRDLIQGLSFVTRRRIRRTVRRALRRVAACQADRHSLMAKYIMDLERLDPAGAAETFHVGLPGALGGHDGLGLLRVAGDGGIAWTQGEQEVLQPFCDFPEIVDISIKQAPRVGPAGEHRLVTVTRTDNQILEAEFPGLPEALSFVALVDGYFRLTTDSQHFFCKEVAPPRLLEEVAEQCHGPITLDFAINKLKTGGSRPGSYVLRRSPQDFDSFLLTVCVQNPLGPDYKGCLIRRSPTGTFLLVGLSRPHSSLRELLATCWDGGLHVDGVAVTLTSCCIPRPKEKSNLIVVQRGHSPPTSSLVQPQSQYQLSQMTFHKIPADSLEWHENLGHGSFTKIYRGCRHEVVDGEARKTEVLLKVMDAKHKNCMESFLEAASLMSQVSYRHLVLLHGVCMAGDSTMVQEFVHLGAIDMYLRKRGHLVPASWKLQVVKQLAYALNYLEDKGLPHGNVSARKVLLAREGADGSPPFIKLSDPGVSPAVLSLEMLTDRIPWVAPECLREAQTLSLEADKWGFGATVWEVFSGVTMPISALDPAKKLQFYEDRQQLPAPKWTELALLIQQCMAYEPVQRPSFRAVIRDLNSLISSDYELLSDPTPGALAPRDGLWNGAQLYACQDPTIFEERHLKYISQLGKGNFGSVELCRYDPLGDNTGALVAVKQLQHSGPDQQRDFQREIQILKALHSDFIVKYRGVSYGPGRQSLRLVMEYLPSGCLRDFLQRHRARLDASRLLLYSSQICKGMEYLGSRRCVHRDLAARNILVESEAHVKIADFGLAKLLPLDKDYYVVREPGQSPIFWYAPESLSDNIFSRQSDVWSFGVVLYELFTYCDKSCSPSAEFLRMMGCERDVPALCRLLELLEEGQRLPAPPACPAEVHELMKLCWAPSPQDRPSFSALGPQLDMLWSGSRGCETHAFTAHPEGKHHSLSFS
Briefly: JAK tyrosine kinase inhibitory activity in the presence of 1 mM ATP (ELISA), JAK3. In outline:
as §1

The target in the next assay is T3, JAK2 (Homo sapiens, UniProt O60674).
T3 construct: purchased Carna Biosciences, Inc
Kind of assay: JAK tyrosine kinase inhibitory activity in the presence of 1 mM ATP (ELISA), JAK2. Put shortly:
as §1

Structures are written as SMILES.

T1 sequence (P23458 whole entry): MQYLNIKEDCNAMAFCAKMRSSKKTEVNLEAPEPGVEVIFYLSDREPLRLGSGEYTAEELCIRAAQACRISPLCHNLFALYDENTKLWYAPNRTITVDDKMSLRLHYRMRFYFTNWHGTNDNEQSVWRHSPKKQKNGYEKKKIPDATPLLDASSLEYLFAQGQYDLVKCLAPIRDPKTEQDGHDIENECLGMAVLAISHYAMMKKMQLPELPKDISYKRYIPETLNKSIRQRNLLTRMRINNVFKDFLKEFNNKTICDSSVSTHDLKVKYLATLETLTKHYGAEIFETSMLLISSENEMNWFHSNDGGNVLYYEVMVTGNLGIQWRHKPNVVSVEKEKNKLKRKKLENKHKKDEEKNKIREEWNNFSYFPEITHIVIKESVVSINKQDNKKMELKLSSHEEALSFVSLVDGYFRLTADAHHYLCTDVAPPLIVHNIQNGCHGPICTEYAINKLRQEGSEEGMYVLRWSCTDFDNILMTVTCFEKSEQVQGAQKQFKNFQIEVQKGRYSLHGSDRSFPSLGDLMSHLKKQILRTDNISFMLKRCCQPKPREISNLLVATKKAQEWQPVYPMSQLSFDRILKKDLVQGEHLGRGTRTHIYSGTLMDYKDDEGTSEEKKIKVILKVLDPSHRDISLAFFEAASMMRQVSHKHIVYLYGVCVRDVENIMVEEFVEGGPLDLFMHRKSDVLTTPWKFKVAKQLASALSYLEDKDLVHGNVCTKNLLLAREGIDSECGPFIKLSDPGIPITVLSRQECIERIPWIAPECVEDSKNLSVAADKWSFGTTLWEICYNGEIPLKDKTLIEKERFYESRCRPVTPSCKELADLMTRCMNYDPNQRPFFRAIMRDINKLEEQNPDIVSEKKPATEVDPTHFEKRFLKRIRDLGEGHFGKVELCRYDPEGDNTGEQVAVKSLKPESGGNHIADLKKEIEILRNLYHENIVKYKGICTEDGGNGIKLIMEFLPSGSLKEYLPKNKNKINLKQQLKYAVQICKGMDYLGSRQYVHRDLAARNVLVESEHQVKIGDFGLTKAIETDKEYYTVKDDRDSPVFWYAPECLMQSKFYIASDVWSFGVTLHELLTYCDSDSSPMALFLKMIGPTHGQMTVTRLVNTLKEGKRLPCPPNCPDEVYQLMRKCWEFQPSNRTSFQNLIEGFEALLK
T3 sequence (O60674 whole entry): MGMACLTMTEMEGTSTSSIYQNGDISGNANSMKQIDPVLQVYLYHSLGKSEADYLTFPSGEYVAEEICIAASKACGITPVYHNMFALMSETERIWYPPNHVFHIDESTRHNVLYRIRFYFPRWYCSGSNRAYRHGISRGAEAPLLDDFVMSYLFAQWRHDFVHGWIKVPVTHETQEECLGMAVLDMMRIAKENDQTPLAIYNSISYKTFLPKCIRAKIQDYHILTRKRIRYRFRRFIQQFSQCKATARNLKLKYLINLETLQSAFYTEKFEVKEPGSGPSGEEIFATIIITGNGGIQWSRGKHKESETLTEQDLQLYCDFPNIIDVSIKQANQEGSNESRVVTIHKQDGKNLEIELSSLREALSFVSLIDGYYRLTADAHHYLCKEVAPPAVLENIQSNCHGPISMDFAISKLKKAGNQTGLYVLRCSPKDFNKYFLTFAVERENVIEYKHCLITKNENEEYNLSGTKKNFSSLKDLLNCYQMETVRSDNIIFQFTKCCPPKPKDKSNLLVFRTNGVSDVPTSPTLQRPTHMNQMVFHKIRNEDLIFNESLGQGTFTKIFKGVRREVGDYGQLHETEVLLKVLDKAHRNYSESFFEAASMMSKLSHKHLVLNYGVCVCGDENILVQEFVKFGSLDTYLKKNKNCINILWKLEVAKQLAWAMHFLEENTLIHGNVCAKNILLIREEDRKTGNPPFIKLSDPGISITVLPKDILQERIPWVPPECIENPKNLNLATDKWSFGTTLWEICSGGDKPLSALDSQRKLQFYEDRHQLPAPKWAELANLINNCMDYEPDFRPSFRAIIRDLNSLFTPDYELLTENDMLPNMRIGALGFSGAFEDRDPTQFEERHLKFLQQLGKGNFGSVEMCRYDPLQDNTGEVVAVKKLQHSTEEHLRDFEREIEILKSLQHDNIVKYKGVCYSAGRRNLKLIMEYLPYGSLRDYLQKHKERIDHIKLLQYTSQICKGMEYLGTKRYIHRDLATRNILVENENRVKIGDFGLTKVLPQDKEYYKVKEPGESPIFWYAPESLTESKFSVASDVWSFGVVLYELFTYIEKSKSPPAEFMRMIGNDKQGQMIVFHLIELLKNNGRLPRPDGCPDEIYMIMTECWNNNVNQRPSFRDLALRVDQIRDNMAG

Turning to `CO[C@H]1CCC[C@@H]1Nc1cc(C(=O)N2CCC(NC(=O)C3CC3)CC2)nc(-c2cnn3ccsc23)n1` [Example 19, N-(1-{[6-{[(1S,2S)-2-Methoxycyclopentyl]amino}-2-(pyrazolo[5,1-b][1,3]thiazol-7-yl)pyrimidin-4-yl]carbonyl}piperidin-4-yl)cyclopropanecarboxamide], the results for the IC50 at JAK1, on JAK3 and at JAK2 were 710 nM, 6500 nM and 4400 nM, respectively.
For `O=C(NC1CCN(C(=O)c2cc(NCc3ccco3)nc(-c3cnn4ccsc34)n2)CC1)C1CC1` [Example 160, N-1-[6-[(furan-2-yl)methyl]amino-2-(pyrazolo[5,1-b][1,3]thiazol-7-yl)pyrimidine-4-carbonyl]piperidin-4-ylcyclopropanecarboxamide] the same measures were 980 nM, > 10000 nM and > 10000 nM.
Taken in the same sequence, the figures for `O=C(NC1CCN(C(=O)c2cc(NC3CCOCC3)nc(-c3cnn4ccsc34)n2)CC1)C1CC1` [Example 172, N-(1-6-[(oxan-4-yl)amino]-2-(pyrazolo[5,1-b][1,3]thiazol-7-yl)pyrimidine-4-carbonylpiperidin-4-yl)cyclopropanecarboxamide] were 320 nM, > 10000 nM and > 10000 nM.
For `COC(=O)NC1CCN(C(=O)c2cc(NC3CCCC3)nc(-c3cnn4ccsc34)n2)CC1` [Example 179, Methyl 1-[6-(cyclopentylamino)-2-(pyrazolo[5,1-b][1,3]thiazol-7-yl)pyrimidine-4-carbonyl]piperidin-4-ylcarbamate], the results for the IC50 on JAK1, at JAK3 and at JAK2 were 320 nM, > 10000 nM and > 10000 nM, respectively.
For `COC(=O)NC1CCN(C(=O)c2cc(NCC(F)(F)F)nc(-c3cnn4ccsc34)n2)CC1` [Example 158, Methyl (1-2-(pyrazolo[5,1-b][1,3]thiazol-7-yl)-6-[(2,2,2-trifluoroethyl)amino]pyrimidine-4-carbonylpiperidin-4-yl)carbamate], the IC50 on JAK1 was 1300 nM; at JAK3, > 10000 nM; at JAK2, > 10000 nM.
Consider `COC(=O)NC1CCN(C(=O)c2cc(NC(C)(C)CO)nc(-c3cnn4ccsc34)n2)CC1` [Example 61, Methyl [1-({6-[(l-hydroxy-2-methylpropan-2-yl)amino]-2-(pyrazolo[5,1-b][1, 3]thiazol-7-yl)pyrimidin-4-yl}carbonyl)piperidin-4-yl]carbamate], for which the IC50 is 540 nM at JAK1, 9400 nM at JAK3 and > 10000 nM at JAK2.
For `CCC(=O)NC1CCN(C(=O)c2cc(NC3(C)CC3)nc(-c3cnn4ccsc34)n2)CC1` [Example 128, N-[1-({6-[(1-Methylcyclopropyl)amino]-2-(pyrazolo[5,1-b][1,3]thiazol-7-yl)pyrimidin-4-yl}carbonyl)piperidin-4-yl]propanamide] the same measures were 760 nM, > 10000 nM and 8500 nM.
For the compound `COC(=O)NC1CCN(C(=O)c2cc(Oc3ccccc3)nc(-c3cnn4ccsc34)n2)CC1` [Example 141, Methyl (1-{[6-phenoxy-2-(pyrazolo[5,1-b][1,3]thiazol-7-yl)pyrimidin-4-yl]carbonyl}piperidin-4-yl)carbamate], the results for the half-inhibitory concentration (IC50) at JAK1, on JAK3 and on JAK2 were 1100 nM, > 10000 nM and > 10000 nM, respectively.
Regarding `CC(=O)NC1CCN(C(=O)c2nc(-c3cnn4ccsc34)nc(N[C@@H](C)C(C)(C)C)c2C)CC1` [Example 6, N-(1-{[6-{[(2S)-3,3-Dimethylbutan-2-yl]amino}-5-methyl-2-(pyrazolo[5,1-b][1,3]thiazol-7-yl)pyrimidin-4-yl]carbonyl}piperidin-4-yl)acetamide], the IC50 at JAK1 amounted to 240 nM; at JAK3, 2800 nM; on JAK2, 1800 nM.
Taken in the same sequence, the figures for `COC(=O)NC1CCN(C(=O)c2cc(N[C@@H]3CCN(C(=O)OC(C)(C)C)C3)nc(-c3cnn4ccsc34)n2)CC1` [Example 148, tert-Butyl (3R)-3-{[6-({4-[(methoxycarbonyl)amino]piperidin-1-yl}carbonyl)-2-(pyrazolo[5,1-b][1,3]thiazol-7-yl)pyrimidin-4-yl]amino}pyrrolidine-1-carboxylate] were 1600 nM, > 10000 nM and > 10000 nM.
Taken in the same sequence, the figures for `CCC(CC)Oc1cc(C(=O)N2CCC(NC(=O)C3CC3)CC2)nc(-c2cnn3ccsc23)n1` [Example 111, N-(1-{[6-(Pentan-3-yloxy)-2-(pyrazolo[5,1-b][1,3]thiazol-7-yl)pyrimidin-4-yl]carbonyl}piperidin-4-yl)cyclopropanecarboxamide] were 120 nM, > 10000 nM and 2400 nM.
As for `C[C@@H](Nc1cc(C(=O)N2CCC(NC(=O)OCC(F)(F)F)CC2)nc(-c2cnn3ccsc23)n1)C1CC1` [Example 103, 2,2,2-Trifluoroethyl (1-{[6-{[(1R)-1-cyclopropylethyl]amino}-2-(pyrazolo[5,1-b][1,3]thiazol 7-yl)pyrimidin-4-yl]carbonyl}piperidin-4-yl)carbamate], the results for the IC50 on JAK1, at JAK3 and at JAK2 were 140 nM, 5900 nM and 2400 nM, respectively.
For `O=C(NC1CCN(C(=O)c2cc(N[C@H]3CC[C@H](O)CC3)nc(-c3cnn4ccsc34)n2)CC1)C1CC1` [Example 168, N-(1-6-[(trans-4-hydroxycyclohexyl)amino]-2-(pyrazolo[5,1-b][1,3]thiazol-7-yl)pyrimidine-4-carbonylpiperidin-4-yl)cyclopropanecarboxamide] the same measures were 1200 nM, 3200 nM and > 10000 nM.
For `CCCCC(=O)NC1CCN(C(=O)c2cc(N[C@@H](C)C3CC3)nc(-c3cnn4ccsc34)n2)CC1` [Example 190, N-1-[6-[(1S)-1-cyclopropylethyl]amino-2-(pyrazolo[5,1-b][1,3]thiazol-7-yl)pyrimidine-4-carbonyl]piperidin-4-ylpentanamide] the same measures were 65 nM, 1000 nM and 6600 nM.
Taken in the same sequence, the figures for `C[C@H](Nc1cc(C(=O)N2CCC(NC(=O)C3CC3)CC2)nc(-c2cnn3ccsc23)n1)C(C)(C)C` [Example 3, N-(1-{[6-{[(2S)-3,3-Dimethylbutan-2-yl]amino}-2-(pyrazolo[5,1-b][1,3]thiazol-7-yl)pyrimidin-4-yl]carbonyl}piperidin-4-yl)cyclopropanecarboxamide] were 62 nM, 3200 nM and 1400 nM.
For the compound `CCS(=O)(=O)NC1CCN(C(=O)c2cc(N[C@@H](C)C3CC3)nc(-c3cnn4ccsc34)n2)CC1` [Example 68, N-(1-{[6-{[(1S)-1-Cyclopropylethyl]amino}-2-(pyrazolo[5,1-b][1,3]thiazol-7-yl)pyrimidin-4-yl]carbonyl}piperidin-4-yl)ethanesulfonamide], the IC50 was determined as 73 nM at JAK1, 2100 nM on JAK3 and 790 nM on JAK2.
For `CC(C)(C)Nc1cc(C(=O)N2CCC(NC(=O)C3CC3)CC2)nc(-c2cnn3ccsc23)n1` [Example 36, N-(1-{[6-(tert-Butylamino)-2-(pyrazolo[5,1-b][1,3]thiazol-7-yl)pyrimidin-4-yl]carbonyl}piperidin-4-yl)cyclopropanecarboxamide] the same measures were 86 nM, > 10000 nM and 620 nM.

Source of the values: US9999622B2, “Pyrazolothiazole compound and medicine comprising same” (NIPPON SHINYAKU CO., LTD., priority 2014, dated 2018).
